Assay results from US20090298745A1, “Treatment of Diabetes with Glycogen Phosphorylase Inhibitors” (priority 2004, published 2009).

Test system: Diabetic ZDF male rats
Experiment: In vivo animal model to mimic human night time dosing
Set-up: species or system rat
Settings: 30 mg/kg po via gavage in 10% Gelucire 44/14; 360 min after dosing at 14 weeks old, from start of dosing (T=0); p=0.019 versus vehicle controls
Protocol: Diabetic ZDF male rats (Charles River) were allowed free access to tap water and enriched pelleted chow diet (M-Z Ereich; Art. No. V1185-000; Ssniff R Spezialdiäten GmbH, D-59494, Soest Germany) ad-libitum for 4 weeks until they were 8 weeks old. The animals were housed under a 16 hr/8 hr:dark/light phase (lights on 09:00). As the animals progressed to the diabetic state, weekly blood glucose and insulin measurement were made at the end of the light period (17:00 h) and a blood glucose measurement made at the end of the active (dark) cycle (08:30-09:00 h). When the animals had reached 8 weeks of age, they were trained on a meal paradigm, by removal of food during the light period (09:00-17:00 h), which was maintained for the remainder of the study. After the animals had reached 12 weeks of age, and their diabetic status had been confirmed using the fasted glucose measurements (>8 mM), the animals were divided into groups. […] Blood glucose and insulin concentrations were measured by the glucose oxidase method (Super G Glucose analyzer; Dr. Müller Gerätebau, Freital, Germany) and Elisa technique, respectively, at T=−45 min, before dosing (08:15 h) and then at T=0 min ([…]), T=45 min (09:45 h), T=90 min (10:30 h), T=150 min (11:20 h) and T=360 min (15:00 h) after each weekly successive test compound dose.

O=C(N[C@@H](Cc1ccc(F)cc1)C(=O)N1CCC(O)CC1)c1cc2cc(Cl)ncc2[nH]1 [Example 3, 5-chloro-1H-pyrrolo[2,3-c]pyridine-2-carboxylic acid [1-(S)-(4-fluorobenzyl)-2-(4-hydroxypiperidin-1-yl)-2-oxoethyl]amide]
reduction in blood glucose concentration (mean+/−S.D.): 6.28 ± 2.47 mM
